Results: patent US20140086977A1, “TIGHT JUNCTIONS MODULATORS” (THE UNIVERSITY OF MANCHESTER, priority 2011, published 2014)
Entries after “also recorded” stand apart in the source; their conditions may differ.

How the values were obtained:
[1] = tested on: Normal human epidermal keratinocytes (NHEK); assay: TEER in NHEK treated with plant polyphenols; assay type: cell-based; details: for Effect on TEER at day four vs untreated control: 100 μM myricetin or Kaempferol, quercetin concentration not stated, Mann Whitney U test
Description: Normal human epidermal keratinocytes (NHEK) were purchased from Promocell (Heidelberg, Germany) and grown on Thincerts™ in proprietary medium containing 0.06 mM calcium chloride. ‘Thincerts’ are small chambers containing a filter on which the cells are grown. The Thincert™ is housed within a conventional 12 well tissue culture plate. This arrangement allows treatment of the cells from either the basal or apical side.
When the cells were confluent, the medium was replaced with new medium but containing 1.8 mM calcium chloride. This induces tight junction formation in NHEK. In experiments where plant polyphenols were tested, a known volume of the plant polyphenol (dissolved in vehicle at a known concentration) was added to both apical and basal chambers of the Thincert™ at the same time as the medium was replaced. In this experiment the plant polyphenols quercetin, Myricetin and Kaempferol were tested.
Tight junctions form over 4 days and this was monitored by measuring the transepithelial electrical resistance (TEER) using an EVOM (world precision instruments). TEER was measured every 24 hours post addition of the test polyphenols and the TEER of control untreated cell monolayers was compared to that of treated cell monolayers.
The methodology set out in Example 6 was repeated, using quercetin at different concentrations. The results are shown in FIG. 8 in which the first bar represents the results for control—untreated cells, the second bar represents the results for cells treated with 100 μM quercetin and the third bar represents the results for cells treated with 10 μM quercetin (see key below). The y-axis represents TEER at 4 days (Ohms.cm^2).

[2] = tested on: Normal primary human keratinocytes (NHEK); assay: Transepithelial electrical resistance (TEER) in NHEK after calcium switch, UCA isomers; assay type: cell-based; details: for Effect on TEER: differentiated NHEK vs untreated cells
From the text: Transepithelial electrical resistance (TEER) measurements are used in epithelial biology as a marker of TJ integrity. Electrical resistance is a measure of how easily ions can pass through a particular transport route. The higher the resistance the harder it is for ions to pass. Whilst the TEER of a cell monolayer is a function of both transcellular and paracellular transport routes, the value of TEER is, however, dominated by the contribution from the paracellular route. TEER of monolayers can be measured using an Epithelial Voltmeter (for example EVOM from WPI Ltd). This instrument passes a current across a monolayer of cells and calculates the resistance according to Ohm's law (V=IR, where V is potential difference, I is current and R is resistance). Therefore increased TEER means […] TJ function. Preferably TEER measurements are carried out at room temperature.
Normal primary human keratinocytes (NHEK) were grown on Thincerts™ in medium containing 0.6 mM calcium until the cells were confluent. TJ formation was the induced by calcium switch and 25 ug/ml cis-UCA was added to the cells which were incubated for 96 hours and the transepithelial electrical resistance (TEER) measured every 24 hours post calcium switch.
(§1) Exposure of human skin to solar simulated ultraviolet radiation (UVR) transiently impairs skin barrier function (SBF) which recovers over a period of 2-14 days. […] Trans-urocanic acid (trans-UCA) is a major epidermal chromophore located in the stratum corneum and exposure of human skin to UVR photoisomerises trans-UCA to cis-UCA. In a previous Affymetrix study, the Cld-1 encoding gene, CLDN1, was listed as one of several markers induced by cis- but not trans-UCA, in normal human epidermal keratinocytes (NHEK) (Kaneko et al, J Immunol 2008, 181, 217-24). We therefore examined UCA isomer-dependent changes in Cld-1 protein expression (assessed by immunoblotting) and TJ function (assessed as transepithelial electrical resistance; TEER) in differentiated NHEK in vitro.

[3] = tested on: claudins 1 and 4, occludin and ZO-1 mRNA; assay: Real-time PCR of TJ gene message levels in NHEK; assay type: cell-based, human; details: 25 ug/ml, 48 hours, vs non-treated keratinocytes
Description: Normal primary human keratinocytes (NHEK) were grown in proprietary medium containing 0.6 mM calcium chloride. When the cells reached confluence they were placed in medium containing […] calcium chloride (calcium switch) and 25 ug/ml cis-UCA was added. Cells were incubated for 48 hours and message levels for the TJ genes claudins 1 and 4, occludin and ZO-1 were quantified using real-time PCR using non-treated keratinocytes as a control (FIG. 3).

claudin 1 = assay: Claudin 1 protein levels in NHEK by immunoblot; assay type: cell-based, human; details: for Effect on claudin 1 protein levels: 24-96 hours post treatment, immunoblot
Description: Normal primary human keratinocytes (NHEK) were grown in proprietary medium containing 0.6 mM calcium chloride. When the cells reached confluence they were placed in medium containing 1.8 mM calcium chloride (calcium switch) and either cis-UCA, irradiated trans-UCA, unirradiated trans-UCA or control medium. Cells were the incubated for 96 hours during which time TJs form. At 24, 48, 72 or 96 hours post treatment, cells were harvested and claudin 1 levels analysed by immunoblot.
NHEK (growing as described above) were treated with different concentrations of cis-UCA for 48 hours after which claudin 1 levels were examined using immunoblotting.
as §1

O=c1c(O)c(-c2cc(O)c(O)c(O)c2)oc2cc(O)cc(O)c12 [Myricetin]
Effect on TEER at day four vs untreated control [1]: significantly increase

O=C(O)/C=C\c1c[nH]cn1 [cis-UCA, cis-urocanic acid]
TEER higher than in untreated cells ([2]; 25 ug/ml cis-UCA, up to 96 hours post calcium switch): approximately 150 ohms.cm^2 | Effect on TEER [2]: higher | TEER higher than in untreated cells ([2]; differentiated NHEK, n=6, p=0.004): ~150 ohms/cm^2 | Levels of mRNA for claudins 1, 4, occludin and ZO-1 [3]: increases | Effect on claudin 1 protein levels (claudin 1): time dependent increase | Effect on claudin 1 protein levels (claudin 1; listed as Cis-UCA): time and concentration dependent increase | Dose dependence of claudin 1 protein levels (claudin 1; 48 hours, greatest at 25 ug/ml): dose dependent increase | Increase in Cld-1 protein (claudin 1; maximal 48 h post-treatment with 25 μg/ml, n=4, p=0.02): ~3 fold

O=C(O)/C=C/c1cnc[nH]1 [trans-UCA, trans-urocanic acid, reference compound]
Effect on TEER [2]: no effect | Effect on claudin 1 protein levels (claudin 1): no effect | Effect on claudin 1 protein levels (claudin 1; listed as unirradiated trans-UCA): does not; also recorded: no effect

O=c1c(O)c(-c2ccc(O)c(O)c2)oc2cc(O)cc(O)c12 [quercetin]
Effect on TEER at day four vs untreated control [1]: significantly increase | Dose dependence of TEER at 4 days ([1]; 100 μM vs 10 μM quercetin): higher quantities of quercetin have a more beneficial effect

O=c1c(O)c(-c2ccc(O)cc2)oc2cc(O)cc(O)c12 [Kaempferol]
Time to barrier formation ([1]; 100 μM): reduces | Effect on TEER at day four vs untreated control [1]: increases
